# Values of other authors as cited in patent publication US20090202668A1, “Use of a polyphenol in the treatment of the metabolic syndrome and endothelial dysfunction or other vascular sequellae” (priority 2006, published 2009).
# Molecular target: T1, CETP (Homo sapiens, UniProt P11597)
# T1 sequence (P11597 18-493): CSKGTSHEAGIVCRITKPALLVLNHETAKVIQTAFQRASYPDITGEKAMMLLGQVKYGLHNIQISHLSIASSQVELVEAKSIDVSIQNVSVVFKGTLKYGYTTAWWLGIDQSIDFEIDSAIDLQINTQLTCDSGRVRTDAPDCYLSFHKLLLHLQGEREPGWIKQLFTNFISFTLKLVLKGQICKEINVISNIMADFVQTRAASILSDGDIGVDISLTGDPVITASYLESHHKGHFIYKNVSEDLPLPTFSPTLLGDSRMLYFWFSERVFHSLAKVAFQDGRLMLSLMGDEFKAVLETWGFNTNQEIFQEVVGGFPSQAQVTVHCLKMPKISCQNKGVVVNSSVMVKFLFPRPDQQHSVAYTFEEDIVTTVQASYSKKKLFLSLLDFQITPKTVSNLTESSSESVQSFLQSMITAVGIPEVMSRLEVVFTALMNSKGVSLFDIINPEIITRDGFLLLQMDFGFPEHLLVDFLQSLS
structure (smiles),measurement,setting,value
CCOC(=O)N1c2ccc(C(F)(F)F)cc2[C@@H](N(Cc2cc(C(F)(F)F)cc(C(F)(F)F)c2)C(=O)OC)C[C@H]1CC [Torcetrapib],side effects,,major side effects such as death
same,results of HDL-increasing treatment,CETP-inhibitor,poor results
